Source: patent US6555710B1, “Aminobenzophenones as inhibitors of IL-1 β and TNF-α” (Leo Pharmaceutical Products Ltd a/s Lovens Kemiske Fabrik …, priority 1999, dated 2003)

Tests used:
Assay type in all cases: cell-based
IL-1β = test: Inhibition of IL-1β secretion in LPS stimulated peripheral blood mononuclear cells (ELISA); settings: PBMC; LPS stimulated human peripheral blood mononuclear cells, 18 hours; read-out: The median inhibition concentration (IC50) of IL-1β
Method: (§1) To study the effect of the compound of the present invention in vitro the inhibition of the IL-1β and TNF-α secretion was measured using the following procedure:
(§2) Cytokine production was measured in the media from lipopolysaccharide (LPS) stimulated peripheral blood mononuclear cells. The mononuclear cells were isolated from human peripheral blood by Lymphoprep® (Nycomed, Norway) fractionation and suspended in RPMI 1640 (growth medium) with foetal calv serum (FCS, 2%), at a concentration of 5×10^5 cells/ml. The cells were incubated in 24-well tissue culture plates in 1 ml aliquots. Test compounds were dissolved in dimethylsulfoxide (DMSO, 10 mM) and were diluted with the medium. Compounds were added to the cells for 30 minutes, then LPS ([…] final concentration) was added. The plates were incubated for 18 hours, and the concentration of IL-1β and TNF-α in the medium was determined by enzyme-linked immunosorbent assays. The median inhibitory concentrations (IC50) of the compounds were calculated.

TNF-α = test: Inhibition of TNF-α secretion in LPS stimulated peripheral blood mononuclear cells (ELISA); settings: PBMC; LPS stimulated human peripheral blood mononuclear cells, 18 hours; read-out: The median inhibition concentration (IC50) of TNF-α
Method: as §1, §2

[1] = system: Human polymorphonuclear (PMN) granulocytes; test: Inhibition of PMN superoxide secretion (ferricytochrome C reduction, TNF-α primed, fMLP stimulated); settings: read-out: The median inhibition concentration (IC50) of PMN-superoxide
Method: The compounds of the present invention also show similar activities in the ability to inhibit PMN (polymorphonuclear) superoxide secretion which is also indicative of potentially useful anti-inflammatory drugs. The compounds were tested using the following procedure:
Human polymorphonuclear (PMN) granulocytes were isolated from human blood by dextran sedimentation, Lymphoprep® fractionation and hypotonic lysis of contaminating erythrocytes. Superoxide anion generation was measured as the superoxide dismutase inhibitable reduction of ferricytochrome C (Madhu, S. B. et al, Inflammation, 16, 241, (1992)). The cells were suspended in Hanks' balanced salt solution, and incubated for 10 minutes at 37° C. with test compounds. The cells were primed by the addition of TNF-α (3 ng/ml final concentration) for 10 minutes, and then ferricytochrome C, (final concentration 750 μg/ml), bovine serum albumin (BSA, final concentration 1 mg/ml) and formyl-methionyl-leucyl-phenylalanine (fMLP, final concentration 10^−7 M) were added for 3 minutes. The cells were chilled on ice, and were spun down. The optical densities in the cell-free supernatant was measured in a spectrophotometer. The median inhibitory concentration (IC50) of the compounds was calculated.

IC50 (IL-1β) [nM] | IC50 (TNF-α) [nM] | IC50 [1] [nM] | Structure (SMILES)
32 | 6.3 | 13 | Cc1ccccc1C(=O)c1ccc(Nc2ccc(Br)cc2NC(=O)C(F)(F)F)cc1Cl [Compound 101, 2,2,2-Trifluoro-N-[5-bromo-2-[3-chloro-4-(2-methylbenzoyl)-phenylamino]-phenyl]acetamide]
6.3 | 3.2 | 25 | Cc1ccccc1C(=O)c1ccc(Nc2ccc(F)cc2NC(=O)C(F)(F)F)cc1Cl [Compound 102, 2,2,2-Trifluoro-N-[2-[3-chloro-4-(2-methylbenzoyl)-phenylamino]-5-fluoro-phenyl]acetamide]
20 | 4 | 13 | Cc1ccccc1C(=O)c1ccc(Nc2ccccc2NC(=O)C(F)(F)F)cc1Cl [ref. b), 2,2,2-Trifluoro-N-[2-[3-chloro-4-(2-methylbenzoyl)-phenylamino]-phenyl]acetamide, reference compound]
